Test results taken from publication PMC12169669, “Regio- and Stereoselective Synthesis of Nitro-fatty Acids as NRF2 Pathway Activators Working under Ambient or Hypoxic Conditions” (Journal of Medicinal Chemistry, 2025).

Assay: Cytotoxicity assay (sulforhodamine B, SRB)
Format: cell-based
Settings: mouse, mouse embryonic fibroblasts (MEFs; STO)
Procedure: For cytotoxicity experiments, mouse embryonic fibroblasts (MEFs; STO, 86032003, Sigma-Aldrich) were cultured in DMEM (41966-029, Thermo Fisher Scientific) + 5% FBS and were seeded at 10,000 cells per well in a 96-well plate and allowed to adhere for 8 h under atmospheric conditions. Plates were then placed in incubators with the specified oxygen concentrations (21%, 4%, or 1%) and incubated overnight. The following day, the medium was replaced with fresh medium (+5% FBS) adjusted to match the target oxygen concentrations and containing the test compounds (1–100 μM). After 24 h of incubation, adherent cells were stained using a modified sulforhodamine B (SRB) assay as described in. SRB was obtained from Sigma-Aldrich (S1402). Briefly, the medium was aspirated, and cells were fixed with 10% cold trichloroacetic acid. After washing twice with distilled water, the cells were stained with 0.1% SRB dissolved in 1% acetic acid. The cells were then washed 3–4 times with 1% acetic acid and allowed to dry. The stain was solubilized with 10 mM unbuffered TRIS base, and absorbance was measured at 540 nm (Infinite M200 Pro, Tecan, Austria). The cell viability of treated samples was calculated as a percentage of nontreated controls, and IC50 values were determined (see Statistics). According to the IC50 values, a nontoxic 2 μM concentration of NO2FAs was used in further in vitro experiments. For detailed results, see Supporting Information Figure S1 and Table S3. Values are presented as arithmetic means ± standard deviations (SD), unless otherwise specified. Half-maximal inhibitory concentration (IC50) values were calculated using four-parameter logistic regression (dose vs response). For Western blot analyses, one-way ANOVA with Dunnett’s multiple comparisons test was performed against control samples. The significance level was set at p < 0.05. Statistical analyses were conducted using GraphPad Prism v10.4 (GraphPad Software, www.graphpad.com). Statistical methods and the number of experiments are indicated in the figure legends. page 9: Supporting information S9 Cytotoxicity of tested NO2FA derivatives (Figure S1) 1 10 100 0 50 100 150 21% O2 Concentration (µM) % of control 1 10 100 0 50 100 150 4% O2 Concentration (µM) % of control 1 10 100 0 50 100 150 1% O2 Concentration (µM) % of control 10-NO2OA 9-NO2OA 10-NO2LA 9-NO2cLA 10-NO2SA A B C Figure S 1. Cytotoxicity of tested NO2FA derivatives. Mouse embryonic fibroblasts (MEFs) were cultured under varying oxygen conditions (21, 4, and 1%) and treated for 24 hours with the tested NO₂FAs, after which adherent cells were stained with sulforhodamine B. Results are presented as a percentage of control cells across different oxygen culture conditions (A–C). IC₅₀ values were determined from dose-response curves (see Supplementary Table S3). Data are expressed as mean ± SD from three independent experiments (n = 3). (1 picture or pasted object on this page, not shown here) page 11: Supporting information Calculated IC50 values of tested NO2FA derivatives (Table S3) Table S 3. Calculated IC50 values of tested NO2FA derivatives. IC 21% O2 4% O2 1% O2 50 Value SEM Value SEM Value SEM 10-NO2OA 6.28 0.19 5.74 0.20 8.19 0.21 9-NO2OA 9.47 0.57 7.75 0.54 6.93 0.32 10-NO2LA 11.78 0.41 11.17 0.26 13.79 1.02 9-NO2cLA 18.03 1.96 17.19 2.26 14.31 1.82 10-NO2SA ≈100 >100 >100 IC₅₀ values were derived from dose-response curves using four-parameter logistic regression across different oxygen culture conditions. Data are presented as mean and SEM values from three independent experiments (n = 3). The IC₅₀ values calculated for cultures in 21% oxygen indicate an increasing cytotoxic potential in the order: 10-NO₂OA > 9-NO₂OA > 10-NO₂LA > 9-NO₂cLA. […] In 1% oxygen, the order of cytotoxic potential shifted slightly to 9-NO₂OA > 10-NO₂OA > 10-NO₂LA > 9-NO₂cLA. However, differences in IC₅₀ values across the oxygen conditions for each NO₂FA derivative ranged from ca. 1 to 3 µM. […]

SMILES: CCCCCCCC/C=C(\CCCCCCCC(=O)O)[N+](=O)[O-] [9-NO2OA, (9E)-9-Nitro-oleic Acid]
- IC50 at 24 h (1% O2): 6.93 ± 0.32 µM
- IC50 at 24 h (4% O2): 7.75 ± 0.54 µM
- IC50 at 24 h (21% O2): 9.47 ± 0.57 µM

SMILES: CCCCCC/C=C/C=C(\CCCCCCCC(=O)O)[N+](=O)[O-] [9-NO2cLA, (9E,11E)-9-Nitro Conjugated Linoleic Acid]
- IC50 at 24 h (1% O2): 14.3 ± 1.82 µM
- IC50 at 24 h (4% O2): 17.2 ± 2.26 µM
- IC50 at 24 h (21% O2): 18 ± 1.96 µM

SMILES: CCCCC/C=C\C/C(=C\CCCCCCCC(=O)O)[N+](=O)[O-] [10-NO2LA, (9E,12Z)-10-Nitro Linoleic Acid]
- IC50 at 24 h (1% O2): 13.8 ± 1.02 µM
- IC50 at 24 h (4% O2): 11.2 ± 0.26 µM
- IC50 at 24 h (21% O2): 11.8 ± 0.41 µM

SMILES: CCCCCCCC/C(=C\CCCCCCCC(=O)O)[N+](=O)[O-] [10-NO2OA, (9E)-10-Nitro-oleic Acid]
- IC50 at 24 h (1% O2): 8.19 ± 0.21 µM
- IC50 at 24 h (4% O2): 5.74 ± 0.2 µM
- IC50 at 24 h (21% O2): 6.28 ± 0.19 µM

SMILES: CCCCCCCCC(CCCCCCCCC(=O)O)[N+](=O)[O-] (stereo not shown) [10-NO2SA, 10-Nitro Stearic acid]
- IC50 at 24 h (1% O2): > 100 µM
- IC50 at 24 h (4% O2): > 100 µM
- IC50 at 24 h (21% O2): ~100 µM
- IC50 at 24 h (under all three oxygen conditions (21, 4, 1%)): ≥ 100 µM
